Measurements taken from ChEMBL document CHEMBL2429820, “Synthesis and anticonvulsant activity evaluation of 7-alkoxy-2,4-dihydro-1H-benzo[b][1,2,4]triazolo[4,3-d][1,4]thiazin-1-ones in various murine experimental seizure models” (Med Chem Res, 2013).
Active and inactive are the calls of the source. The rule behind the calls is not given here.

Assays:
Mus musculus [1] = test: Protective index, ratio of TD50 for ip dosed KunMing mouse to ED50 for ip dosed KunMing mouse; type: functional
[2] = Neurotoxicity in ip dosed KunMing mouse assessed as inability of animal to maintain equilibrium on rod for at least 1 min; type: toxicity, organism-based; conditions: in vivo
Mus musculus [3] = test: Anticonvulsant activity in KunMing mouse assessed as protection against maximal electroshock-induced seizure at 30 mg/kg, ip after 0.5 hrs; type: functional, organism-based; design: dose 30 mg/kg
Mus musculus [4] = test: Anticonvulsant activity in KunMing mouse assessed as protection against maximal electroshock-induced seizure at 15 mg/kg, ip after 0.5 hrs; type: functional, organism-based; design: dose 15 mg/kg
Mus musculus [5] = test: Anticonvulsant activity in KunMing mouse assessed as protection against maximal electroshock-induced seizure at 100 mg/kg, ip after 0.5 hrs; type: functional, organism-based; design: dose 100 mg/kg
Mus musculus [6] = test: Anticonvulsant activity in ip dosed KunMing mouse assessed as protection against maximal electroshock-induced seizure after 0.5 hrs; type: functional
Mus musculus [7] = test: Anticonvulsant activity in KunMing mouse assessed as protection against maximal electroshock-induced seizure at 7.5 mg/kg, ip after 0.5 hrs; type: functional, organism-based; design: dose 7.5 mg/kg
Mus musculus [8] = test: Anticonvulsant activity against bicuculline-induced seizure in KunMing mouse assessed as tonic seizure level at 30 mg/kg, ip administered 30 mins before bicuculline challenge measured after 30 mins; type: functional; conditions: route intraperitoneal
Mus musculus [9] = test: Anticonvulsant activity against bicuculline-induced seizure in KunMing mouse assessed as lethality at 30 mg/kg, ip administered 30 mins before bicuculline challenge measured after 30 mins; type: functional; conditions: route intraperitoneal
Mus musculus [10] = test: Anticonvulsant activity against pentylenetetrazole-induced seizure in KunMing mouse assessed as clonic seizure level at 30 mg/kg, ip administered 30 mins before pentylenetetrazole challenge measured after 30 mins; type: functional; conditions: route intraperitoneal
Mus musculus [11] = test: Anticonvulsant activity against 3-mercaptopropionic acid-induced seizure in KunMing mouse assessed as tonic seizure level at 30 mg/kg, ip administered 30 mins before 3-mercaptopropionic acid challenge measured after 30 mins; type: functional; conditions: route intraperitoneal
Mus musculus [12] = test: Anticonvulsant activity against 3-mercaptopropionic acid-induced seizure in KunMing mouse assessed as clonic seizure level at 30 mg/kg, ip administered 30 mins before 3-mercaptopropionic acid challenge measured after 30 mins; type: functional; conditions: route intraperitoneal
Mus musculus [13] = test: Anticonvulsant activity against pentylenetetrazole-induced seizure in KunMing mouse assessed as lethality at 30 mg/kg, ip administered 30 mins before pentylenetetrazole challenge measured after 30 mins; type: functional; conditions: route intraperitoneal
Mus musculus [14] = test: Anticonvulsant activity against bicuculline-induced seizure in KunMing mouse assessed as clonic seizure level at 30 mg/kg, ip administered 30 mins before bicuculline challenge measured after 30 mins; type: functional; conditions: route intraperitoneal
Mus musculus [15] = test: Anticonvulsant activity against pentylenetetrazole-induced seizure in KunMing mouse assessed as tonic seizure level at 30 mg/kg, ip administered 30 mins before pentylenetetrazole challenge measured after 30 mins; type: functional; conditions: route intraperitoneal
Mus musculus [16] = test: Anticonvulsant activity against 3-mercaptopropionic acid-induced seizure in KunMing mouse assessed as lethality at 30 mg/kg, ip administered 30 mins before 3-mercaptopropionic acid challenge measured after 30 mins; type: functional; conditions: route intraperitoneal

Row | SMILES | PI (Mus musculus [1]) | TD50 at 1 min [2] [mg/kg] | Activity (Mus musculus [3]) | Activity (Mus musculus [5]) | ED50 (Mus musculus [6]) [mg/kg] | other results
1 | CCCCOc1ccc2c(c1)SCc1n[nH]c(=O)n1-2 | 14.9 | 118 | Active | Active | 7.9 | Activity (Mus musculus [4]): Active
2 | CCCOc1ccc2c(c1)SCc1n[nH]c(=O)n1-2 | 7 | 84.9 | Active | Active | 12.2 | –
3 | N#Cc1ccccc1COc1ccc2c(c1)SCc1n[nH]c(=O)n1-2 | – | – | – | inactive | – | –
4 | O=c1[nH]nc2n1-c1ccc(OCc3ccc(Cl)cc3)cc1SC2 | – | – | – | – | – | Activity (Mus musculus [4]): inactive
5 | Cc1ccc(COc2ccc3c(c2)SCc2n[nH]c(=O)n2-3)cc1 | – | – | Active | Active | – | Activity (Mus musculus [7]): inactive
6 | O=c1[nH]nc2n1-c1ccc(OCc3cccc(F)c3)cc1SC2 | – | – | – | Active | – | Activity (Mus musculus [7]): inactive
7 | CCOc1ccc2c(c1)SCc1n[nH]c(=O)n1-2 | – | – | inactive | Active | – | –
8 | O=c1[nH]nc2n1-c1ccc(OCc3c(Cl)cccc3Cl)cc1SC2 | – | – | – | – | – | Activity (Mus musculus [4]): inactive
9 | NC(=O)N1c2ccccc2C=Cc2ccccc21 [CARBAMAZEPINE] | 6.4 | – | – | – | 11.8 | Activity (Mus musculus [8]): 0%; Activity (Mus musculus [9]): 60%; Activity (Mus musculus [10]): 100%; Activity (Mus musculus [11]): 0%; Activity (Mus musculus [12]): 100%; Activity (Mus musculus [13]): 10%; Activity (Mus musculus [14]): 100%; Activity (Mus musculus [15]): 0%
10 | O=c1[nH]nc2n1-c1ccc(OCc3cccc(C(F)(F)F)c3)cc1SC2 | – | – | inactive | – | – | –
11 | O=c1[nH]nc2n1-c1ccc(OCc3ccccc3Cl)cc1SC2 | – | – | – | inactive | – | –
12 | CCCCCOc1ccc2c(c1)SCC(=O)N2 | 8.9 | 306 | – | – | 34.1 | –
13 | CCCCCCOc1ccc2c(c1)SCc1n[nH]c(=O)n1-2 | 11.3 | 89.6 | Active | Active | 7.9 | Activity (Mus musculus [4]): Active
14 | CCCCCCCCOc1ccc2c(c1)SCc1n[nH]c(=O)n1-2 | – | – | – | inactive | – | –
15 | CCCCCOc1ccc2c(c1)SCc1n[nH]c(=O)n1-2 | 11.5 | 81.8 | Active | Active | 7.1 | Activity (Mus musculus [4]): Active
16 | CCCCCCOc1ccc2c(c1)CCC(=O)N2 | 2.4 | – | – | – | 24 | –
17 | CCCCCCCOc1ccc2c(c1)SCc1n[nH]c(=O)n1-2 | – | – | – | – | – | Activity (Mus musculus [7]): inactive
18 | O=c1[nH]nc2n1-c1ccc(OCc3ccccc3F)cc1SC2 | – | – | – | Active | – | Activity (Mus musculus [7]): inactive
19 | O=c1[nH]nc2n1-c1ccc(OCc3cccc(Cl)c3)cc1SC2 | – | – | – | Active | – | Activity (Mus musculus [4]): inactive
20 | CCCCCCCCCCCCCCOc1ccc2c(c1)SCc1n[nH]c(=O)n1-2 | – | – | – | inactive | – | –
21 | CCCCCCCCCCCCOc1ccc2c(c1)SCc1n[nH]c(=O)n1-2 | – | – | – | inactive | – | –
22 | O=c1[nH]nc2n1-c1ccc(OCc3ccccc3)cc1SC2 | 7.8 | 94.7 | – | Active | 12.2 | –
23 | O=c1[nH]nc2n1-c1ccc(OCc3ccc(F)cc3)cc1SC2 | 15.4 | 141 | Active | Active | 9.2 | Activity (Mus musculus [8]): 10%; Activity (Mus musculus [9]): 30%; Activity (Mus musculus [10]): 100%; Activity (Mus musculus [16]): 60%; Activity (Mus musculus [11]): 0%; Activity (Mus musculus [12]): 100%; Activity (Mus musculus [13]): 80%; Activity (Mus musculus [14]): 90%; Activity (Mus musculus [15]): 10%
